The target of assay [1] is Genome polyprotein (dengue virus type 2, UniProt P29990). In words: flavivirus cap methylation enzyme inhibition – biochemical, confirmation dose response, primary screen (AID 588689). It is filed as functional.
Assay [2] can be described thus: P. falciparum Dd2 growth inhibitors, dose response, SYBR Green, cherry-picked samples (AID 1159567). It counts as functional, cell-based.
In assay [3] the target is T1, Fatty acid synthase (Homo sapiens, UniProt P49327). In words: inhibition of human FAS-TE enzyme activity – biochemical, endpoint fluorescence intensity, uHTS hits, dose response (AID 624327).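 Also: fluorescence from hydrolysis of an O-methyl fluorescein acyl ester substrate by the enzyme.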 It counts as functional.
Assay [4] deals with T1, Fatty acid synthase. In words: inhibition of human FAS-TE enzyme activity – biochemical, kinetic fluorescence intensity, dose response (AID 624326).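 Also: rate of fluorescence rise from hydrolysis of a fluorogenic O-methyl fluorescein ester substrate.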 It counts as functional.
Assay [5] addresses T2, Leucine aminopeptidase (Plasmodium falciparum 3D7, UniProt Q8IL11).
T2 sequence (Q8IL11 whole entry): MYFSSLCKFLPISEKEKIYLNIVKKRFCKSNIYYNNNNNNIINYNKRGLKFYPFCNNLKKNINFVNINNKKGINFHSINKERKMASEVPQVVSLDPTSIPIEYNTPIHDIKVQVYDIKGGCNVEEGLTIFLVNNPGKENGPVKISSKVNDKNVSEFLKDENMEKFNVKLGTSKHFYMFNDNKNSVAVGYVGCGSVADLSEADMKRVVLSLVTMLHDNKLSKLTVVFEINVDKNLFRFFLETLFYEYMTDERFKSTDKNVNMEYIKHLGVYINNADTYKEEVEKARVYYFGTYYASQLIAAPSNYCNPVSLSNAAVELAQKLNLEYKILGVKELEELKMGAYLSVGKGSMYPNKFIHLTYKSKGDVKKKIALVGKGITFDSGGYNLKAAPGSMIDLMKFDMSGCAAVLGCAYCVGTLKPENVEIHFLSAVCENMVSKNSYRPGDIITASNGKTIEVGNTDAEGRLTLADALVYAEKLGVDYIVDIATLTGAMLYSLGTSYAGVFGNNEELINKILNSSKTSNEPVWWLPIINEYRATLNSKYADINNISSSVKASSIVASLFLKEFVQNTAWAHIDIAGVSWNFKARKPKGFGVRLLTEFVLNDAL
The assay is described as follows: P. falciparum M17LAP inhibitors, primary screen, biochemical, fluorogenic H-Leu-NHMec substrate, 1536-well (AID 1619). It is filed as functional.

In assay [6] the target is FAD-linked sulfhydryl oxidase ALR (Homo sapiens, UniProt P55789). In words: ALR-catalysed DTT oxidation blockers – biochemical, H2O2 detection, luminescence, cherry-pick, dose response (AID 493248).
The nature of assay [7]: Luminescence Cell-Based Dose Response HTS to Identify Activators of Luciferase Translation or Activity in H4 […] Cells. [Related pubchem assays: 1829 (Project Summary), 1814 (Primary HTS)]. It counts as functional.
In assay [8] the target is T3, RNA-binding protein pos-1 (Caenorhabditis elegans, UniProt G5EF15).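 Also: purified POS-1 fused to maltose binding protein made in E. coli; potency of compounds blocking POS-1 binding to fluorescent RNA.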
T3 sequence (G5EF15 whole entry): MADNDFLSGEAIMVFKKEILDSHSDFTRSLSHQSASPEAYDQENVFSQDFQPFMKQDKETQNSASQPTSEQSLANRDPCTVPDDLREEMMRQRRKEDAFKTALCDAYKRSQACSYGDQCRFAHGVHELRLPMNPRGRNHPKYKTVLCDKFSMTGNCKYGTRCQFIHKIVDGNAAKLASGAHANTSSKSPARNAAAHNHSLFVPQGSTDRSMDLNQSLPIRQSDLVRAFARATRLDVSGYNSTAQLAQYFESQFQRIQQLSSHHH
The assay is described as follows: disruptors of C. elegans POS-1 RNA interaction – biochemical, fluorescence polarization, dose response (AID 1964). (In general: Fluorescence polarisation rises when a labelled molecule tumbles more slowly, as on binding a larger partner.)

Assay [9] has as its system H4. In words: Luminescence Cell-Based Dose Response HTS to Identify Activators of 5'UTR Stem-Loop Driven Prion Protein mRNA Translation in H4 Neuroglioblastoma Cells. [Related pubchem assays: 1829 (Project Summary), 1814 (Primary HTS)]. It is filed as functional. The note with it: Homo sapiens.
Assay [10] can be described thus: Luminescence Cell-Based Dose Confirmation HTS to Identify Activators of 5'UTR Stem-Loop Driven Alpha-Synuclein mRNA Translation in H4 Neuroglioblastoma Cells. [Related pubchem assays: 1829 (Project Summary), 1814 (Primary HTS)]. It is filed as functional.
In assay [11] the target is T4, Zinc finger protein mex-5 (Caenorhabditis elegans, UniProt Q9XUB2).
T4 sequence (Q9XUB2 whole entry): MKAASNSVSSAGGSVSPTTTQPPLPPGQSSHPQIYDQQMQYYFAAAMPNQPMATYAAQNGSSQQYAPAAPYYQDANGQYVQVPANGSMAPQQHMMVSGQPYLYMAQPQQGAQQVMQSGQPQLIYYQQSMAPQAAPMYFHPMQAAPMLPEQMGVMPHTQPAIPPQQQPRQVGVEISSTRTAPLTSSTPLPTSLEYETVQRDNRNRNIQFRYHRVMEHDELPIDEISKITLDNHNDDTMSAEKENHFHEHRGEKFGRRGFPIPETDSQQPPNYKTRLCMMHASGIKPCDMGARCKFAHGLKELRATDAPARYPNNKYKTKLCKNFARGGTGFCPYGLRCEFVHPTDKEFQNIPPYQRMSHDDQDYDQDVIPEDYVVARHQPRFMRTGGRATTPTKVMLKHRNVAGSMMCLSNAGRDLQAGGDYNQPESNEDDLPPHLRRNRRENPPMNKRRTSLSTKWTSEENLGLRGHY
In words: potency of MEX-5 RNA-binding blockers – biochemical, C. elegans, fluorescence polarization, dose response (AID 1960).

Calls of active or inactive are those of the source. A value given as a limit tells only on which side of the number the result lay.

T1 sequence (P49327 whole entry): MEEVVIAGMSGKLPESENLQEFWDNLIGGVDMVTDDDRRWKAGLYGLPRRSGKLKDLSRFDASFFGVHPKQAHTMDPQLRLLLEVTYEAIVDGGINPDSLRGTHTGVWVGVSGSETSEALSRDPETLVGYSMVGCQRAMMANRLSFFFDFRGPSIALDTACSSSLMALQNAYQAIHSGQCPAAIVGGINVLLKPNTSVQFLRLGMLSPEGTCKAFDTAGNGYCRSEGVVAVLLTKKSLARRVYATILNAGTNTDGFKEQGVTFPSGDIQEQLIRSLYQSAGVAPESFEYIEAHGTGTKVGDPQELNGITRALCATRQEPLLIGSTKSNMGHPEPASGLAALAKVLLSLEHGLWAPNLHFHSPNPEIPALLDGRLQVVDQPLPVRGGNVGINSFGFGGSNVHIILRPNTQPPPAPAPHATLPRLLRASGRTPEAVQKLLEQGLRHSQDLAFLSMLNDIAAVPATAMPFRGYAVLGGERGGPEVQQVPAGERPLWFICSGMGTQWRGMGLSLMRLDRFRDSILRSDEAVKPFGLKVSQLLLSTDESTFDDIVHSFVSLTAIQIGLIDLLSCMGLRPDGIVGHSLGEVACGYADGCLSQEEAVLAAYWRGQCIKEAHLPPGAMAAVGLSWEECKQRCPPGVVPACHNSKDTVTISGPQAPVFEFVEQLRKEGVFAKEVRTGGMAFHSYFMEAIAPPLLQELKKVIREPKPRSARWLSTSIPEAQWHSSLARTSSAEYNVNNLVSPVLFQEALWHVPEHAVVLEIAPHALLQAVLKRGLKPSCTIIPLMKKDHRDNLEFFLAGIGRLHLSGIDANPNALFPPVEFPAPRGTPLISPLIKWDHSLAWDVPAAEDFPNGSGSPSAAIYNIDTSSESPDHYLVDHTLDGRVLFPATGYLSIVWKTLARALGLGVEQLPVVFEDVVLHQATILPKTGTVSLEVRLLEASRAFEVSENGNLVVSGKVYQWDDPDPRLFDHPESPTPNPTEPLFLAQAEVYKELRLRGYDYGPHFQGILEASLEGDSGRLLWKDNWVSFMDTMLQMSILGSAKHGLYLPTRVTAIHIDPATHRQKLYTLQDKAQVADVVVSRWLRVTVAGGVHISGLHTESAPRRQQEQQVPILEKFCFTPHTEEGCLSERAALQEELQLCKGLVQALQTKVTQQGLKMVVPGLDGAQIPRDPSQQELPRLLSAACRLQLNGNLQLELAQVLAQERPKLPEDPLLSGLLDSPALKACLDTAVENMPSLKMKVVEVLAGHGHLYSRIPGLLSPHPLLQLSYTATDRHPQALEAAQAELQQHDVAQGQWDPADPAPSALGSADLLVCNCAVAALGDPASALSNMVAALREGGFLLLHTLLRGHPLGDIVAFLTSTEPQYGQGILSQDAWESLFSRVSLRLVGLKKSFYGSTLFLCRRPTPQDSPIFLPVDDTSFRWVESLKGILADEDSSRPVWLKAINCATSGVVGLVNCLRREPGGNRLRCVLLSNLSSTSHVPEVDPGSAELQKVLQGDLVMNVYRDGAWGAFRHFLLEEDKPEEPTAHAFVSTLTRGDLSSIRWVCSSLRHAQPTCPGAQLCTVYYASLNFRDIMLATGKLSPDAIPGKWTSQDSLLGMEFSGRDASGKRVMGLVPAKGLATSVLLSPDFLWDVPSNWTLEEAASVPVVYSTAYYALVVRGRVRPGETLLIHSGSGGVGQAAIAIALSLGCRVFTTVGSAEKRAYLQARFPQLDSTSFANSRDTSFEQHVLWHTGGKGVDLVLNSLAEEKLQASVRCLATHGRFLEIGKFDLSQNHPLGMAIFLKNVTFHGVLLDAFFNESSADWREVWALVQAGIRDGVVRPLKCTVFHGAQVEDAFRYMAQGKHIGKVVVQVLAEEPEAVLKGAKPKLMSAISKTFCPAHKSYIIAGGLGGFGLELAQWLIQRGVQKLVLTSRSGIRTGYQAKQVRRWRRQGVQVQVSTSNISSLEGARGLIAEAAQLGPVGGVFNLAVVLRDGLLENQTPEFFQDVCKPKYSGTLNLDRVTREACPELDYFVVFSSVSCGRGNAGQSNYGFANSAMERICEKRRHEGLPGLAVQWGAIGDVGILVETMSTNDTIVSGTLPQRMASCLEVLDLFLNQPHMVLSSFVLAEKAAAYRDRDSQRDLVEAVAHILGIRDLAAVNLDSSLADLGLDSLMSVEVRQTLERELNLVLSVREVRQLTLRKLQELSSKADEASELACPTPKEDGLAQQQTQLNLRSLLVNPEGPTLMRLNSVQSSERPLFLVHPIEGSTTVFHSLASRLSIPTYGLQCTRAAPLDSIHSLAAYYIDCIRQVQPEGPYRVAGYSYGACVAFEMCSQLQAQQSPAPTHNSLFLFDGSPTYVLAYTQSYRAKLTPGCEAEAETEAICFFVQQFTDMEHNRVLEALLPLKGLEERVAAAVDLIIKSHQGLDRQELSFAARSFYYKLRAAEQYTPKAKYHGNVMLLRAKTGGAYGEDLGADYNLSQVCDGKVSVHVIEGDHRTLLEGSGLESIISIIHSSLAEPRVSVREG
Chain of FAD-linked sulfhydryl oxidase ALR (P55789 whole entry): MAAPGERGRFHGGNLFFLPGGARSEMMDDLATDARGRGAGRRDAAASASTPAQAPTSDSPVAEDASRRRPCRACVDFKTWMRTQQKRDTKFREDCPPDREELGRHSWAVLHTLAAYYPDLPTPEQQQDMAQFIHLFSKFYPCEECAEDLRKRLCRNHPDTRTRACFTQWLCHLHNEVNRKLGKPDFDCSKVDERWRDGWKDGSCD
Chain of Genome polyprotein (P29990 2492-3391 limits assumed): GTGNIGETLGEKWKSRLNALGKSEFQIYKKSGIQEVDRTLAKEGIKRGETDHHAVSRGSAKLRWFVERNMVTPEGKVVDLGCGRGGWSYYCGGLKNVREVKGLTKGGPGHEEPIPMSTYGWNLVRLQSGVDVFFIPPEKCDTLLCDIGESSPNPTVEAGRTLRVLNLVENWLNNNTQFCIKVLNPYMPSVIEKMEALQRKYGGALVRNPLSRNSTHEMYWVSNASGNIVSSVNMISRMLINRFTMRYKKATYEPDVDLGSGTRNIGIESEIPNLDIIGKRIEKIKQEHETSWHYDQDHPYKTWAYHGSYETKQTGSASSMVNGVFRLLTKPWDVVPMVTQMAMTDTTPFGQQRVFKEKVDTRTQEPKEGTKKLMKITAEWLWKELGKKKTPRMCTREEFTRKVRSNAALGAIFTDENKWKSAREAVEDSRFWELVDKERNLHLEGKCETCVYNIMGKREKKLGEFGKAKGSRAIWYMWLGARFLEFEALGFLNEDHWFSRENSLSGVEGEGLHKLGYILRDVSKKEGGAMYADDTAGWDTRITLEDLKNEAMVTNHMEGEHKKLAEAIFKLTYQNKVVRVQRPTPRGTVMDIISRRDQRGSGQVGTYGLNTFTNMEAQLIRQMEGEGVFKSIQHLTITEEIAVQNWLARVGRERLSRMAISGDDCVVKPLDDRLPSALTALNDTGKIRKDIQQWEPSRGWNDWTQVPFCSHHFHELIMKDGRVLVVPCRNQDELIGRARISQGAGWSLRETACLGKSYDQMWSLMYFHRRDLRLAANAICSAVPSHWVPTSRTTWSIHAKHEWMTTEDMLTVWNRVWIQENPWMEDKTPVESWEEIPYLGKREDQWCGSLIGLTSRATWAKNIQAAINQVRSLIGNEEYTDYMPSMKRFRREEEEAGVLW

`Cc1ccc2c(c1)C(=O)C(=O)N2CCCOc1ccccc1C`: the IC50 in [1] was > 100 µM (active).
Take `CCC(=O)N1[C@H](CO)[C@H](c2ccc(C3=CCCCC3)cc2)[C@H]1CNCC1CCC1`: in assay [2], the AC50 was 3.46 µM (active).
`COc1ccc(C(=O)NCCNc2ncc(C(F)(F)F)cc2Cl)cc1[N+](=O)[O-]`: the half-maximal inhibitory concentration (IC50) in [3] was 12.7 µM (active); in assay [4] it was 12 µM (active).
With `Nc1[nH]nc2nc(N3CCOCC3)nc(-c3ccccc3)c12`, in [5], the IC50 is 6.77 µM (active).
As to `CN1C[C@H](C(=O)NC2(C)OC3(O)[C@@H]4CCCN4C(=O)[C@H](Cc4ccccc4)N3C2=O)CC2c3cccc4[nH]cc(c34)C[C@H]21` (some centres undefined), the IC50 in assay [3] was 10.3 µM (active); in [4] it was 11.8 µM (active).
The like results for `O=C1CN(C(=O)c2cc([N+](=O)[O-])ccc2Cl)C(c2ccccc2)c2cc(F)ccc2N1` (centres undefined) were, in that order, 1.36 µM (active) and 1.99 µM (active).
On to `Nc1c(Br)cc(Br)c2c1C(=O)c1c(cccc1S(=O)(=O)O)C2=O`, for which the half-maximal inhibitory concentration (IC50) in assay [1] is 96.1 µM (active).
Consider `CCN(CCCNC(=O)CNC(=O)Cn1cnc2ccccc2c1=O)c1ccccc1`, for which, in [6], the concentration at half-maximal activity (AC50) was 0.729 µM (active).
The same measure, in the same setting: as for `N=C(NOC(=O)c1ccco1)c1ccc(Cl)cc1`, the figure is 13.1 µM (active).
As to `O=C(O)CC12CC3CC(C1)CC(n1ncc(NCc4ccc5c(c4)OCO5)c(Cl)c1=O)(C3)C2`, the IC50 in assay [5] is 40.6 µM (active).
As to `Cc1ccc(S(=O)(=O)c2cc3c(=O)n4ccccc4nc3n(CCc3ccccc3)c2=N)cc1`, the EC50 in [7] is > 120 µM (not active); in [8], 111 µM (inconclusive); in assay [9], 0.713 µM (active); in assay [10], 97.9 µM (active); in assay [11] it was 3.75 µM (inconclusive).
Consider `Cc1nn(-c2cc(C)c3ccccc3n2)c2c1CCC2`, for which the concentration giving a half-maximal response (EC50) in [7] is 18.8 µM (active); in [9], 80.3 µM (active); in assay [10], 4.27 µM (active).
For the molecule `CO[C@H]1CN(C)C(=O)c2ccc(NC(=O)Nc3ccc(C(F)(F)F)cc3)cc2OC[C@@H](C)NC[C@@H]1C`, the AC50 in assay [2] is 9.45 µM (active).
As for `CO[C@H]1CN(C)C(=O)c2cc(NC(=O)c3cc(C)on3)ccc2OC[C@H](C)N(C(=O)C2CC2)C[C@H]1C`, the concentration at half-maximal activity (AC50) in assay [2] is 4.96 µM (active).
As for `Cc1[nH]c2ccccc2c1C(=O)COc1ccccc1`, the EC50 in [7] is 16.4 µM (active); in assay [9] it was 13.2 µM (active); in assay [10], 18.7 µM (active).
Turning to `Cc1ccc(NC2CCCN(C(=O)Cc3nonc3C)C2)cc1C` (centres undefined), the AC50 in assay [6] was 2.54 µM (active).
On to `O=C(Nn1c(C2CCCCC2)nc2ccccc2c1=O)c1ccc([N+](=O)[O-])cc1Cl`, for which the results for the IC50 in assay [3] and in [4] were 19.3 µM (active) and 18.9 µM (active), respectively.
For the molecule `COCCCn1c(SCC(=O)Nc2ccc(C(C)=O)cc2)nc2ccccc2c1=O`, the EC50 is 22.8 µM (active) in assay [7], 68.6 µM (active) in [9] and 13.9 µM (active) in [10].
Regarding `Cc1cccc(CSC2=NCCN2C(=O)c2ccco2)c1`, the AC50 in [6] was 11 µM (active).
Take `O=C(Nc1nc(=O)n(C(=O)C2CC2)s1)c1ccccc1`: the IC50 in [5] was 40.7 µM (active).
With `COc1ccc(C(=O)CCN2CCc3cc(OC)c(OC)cc3C2)cc1`, in [6], the AC50 is 1.84 µM (active).
`CCOc1ccc(CCNC(=O)COC(=O)c2cc([N+](=O)[O-])ccc2N2CCOCC2)cc1OCC`: the IC50 in [3] is 10.1 µM (active); in assay [4] it was 9.59 µM (active).
For `COC(=O)c1ccc(NS(=O)(=O)NC(=O)c2cn(C)c3ccccc23)cc1`, the concentration for a half-maximal effect (EC50) in assay [7], in assay [9] and in [10] was > 120 µM (not active) each time.
Consider `Cc1cc(Br)ccc1NC(=O)CN(C)C(=O)c1cc([N+](=O)[O-])ccc1N1CCOCC1`, for which the figures for the IC50 in [3] and in [4] were 8.23 µM (active) and 4.65 µM (active), respectively.
Take `CC(C)c1ccc(/C=C2\SC(=O)N(CC(=O)NCCCn3ccnc3)C2=O)cc1`: the EC50 in [7] is 0.418 µM (active); in assay [9] it was 18.7 µM (active); in assay [10] it was 29.8 µM (active). Also, in assay [6], the AC50 was 1.75 µM (active).
`NNC(=O)c1cccc(COc2ccccc2Br)c1`: the AC50 in [6] was > 100 µM (inactive).
For `CC(=O)N(C(C)=O)N1C(=O)C2C3c4ccccc4C(c4ccccc43)C2C1=O` (centres undefined), the IC50 in [1] was 53.8 µM (active).
As to `COc1ccc(C2CC23N=C(c2ccccc2)OC3=O)cc1` (centres undefined), the figures for the 50% inhibitory concentration (IC50) in assay [3] and in assay [4] were 0.724 µM (active) and 0.712 µM (active), respectively.
For `COc1cccc(/C=C/c2nc(O)nc(O)c2[N+](=O)[O-])c1O`, the IC50 in [1] was 72.5 µM (active). Also, the AC50 in assay [6] was 39.1 µM (active).
Consider `CCCC(=O)N1CC2(C1)CN(Cc1ccc(Cl)cc1)[C@@H](CO)c1[nH]c3cc(OC)ccc3c12`, for which the half-maximal activity concentration (AC50) in [2] is 5.26 µM (active).
As to `O=C(O)CN1C(=O)/C(=C\c2ccccc2OCc2ccc(F)cc2)SC1=S`, the concentration for half-maximal inhibition (IC50) in assay [1] was 43.2 µM (active).
As for `CSc1ccc(Cl)c(C(=O)OCC(=O)NCc2ccco2)c1`, the 50% inhibitory concentration (IC50) in assay [5] was 49.9 µM (active).
For `Cc1cc(-c2nnc3n2N=C(c2ccc(F)cc2)CS3)[nH]n1`, the 50% effective concentration (EC50) in assay [7], in assay [9] and in assay [10] was > 120 µM (not active) each time.
`O=C1CS/C(=C\S(=O)(=O)c2ccc(Cl)cc2)N1`: in [5], the IC50 was 40 µM (active).
Consider `O=C(Cn1cnc2ccccc2c1=O)Nc1ccc2c(c1)CCC2`, for which the IC50 in assay [5] was 5.23 µM (active).
Take `Cc1nn(CCOc2ccc(Br)cc2)c(C)c1[N+](=O)[O-]`: the IC50 was 15.9 µM (active) in assay [3] and 24.6 µM (inactive) in assay [4].
In the case of `COC(=O)CC(NC(=O)Nc1ccc(C)cc1)c1cccc([N+](=O)[O-])c1` (centres undefined), the values for the IC50 in assay [3] and in assay [4] were 11.5 µM (active) and 8.7 µM (active), respectively.

The IC50 is the concentration needed to halve the response being measured. Broadly, the AC50 is the concentration at which the activity in the assay is half-maximal. Broadly, the EC50 is the concentration at which the effect is half-maximal.

The values above are taken from ChEMBL document CHEMBL1201862, “PubChem BioAssay data set” (2004).
